33 compounds from article PMC3777193, “Diaryl- and triaryl-pyrrole derivatives: inhibitors of the MDM2–p53 and MDMX–p53 protein–protein interactions” (Medchemcomm, 2013) can be followed below.

One test has as its system A2780-CP70. Nature of the test: Growth inhibitory activity, A2780-CP70 (Table S3). The test is classed as cell-based. As to conditions: A2780/CP70, read-out: GI50 A2780-CP70. The text has this:
(§1) (2 pictures or pasted objects on this page, not shown here)

Test [1] is described as follows: Growth inhibitory activity, A2708 (Table S3). The test is classed as cell-based. As to conditions: read-out: GI50 A2708.
Text: as §1

Another test deals with HCT116. The test can be described thus: Growth inhibitory activity, HCT116 (Table S3). It is filed as cell-based. The note with it: Homo sapiens, HCT-116, read-out: GI50 HCT116.
Text: as §1

For another test, the target named is MDM2–p53 (Homo sapiens, UniProt Q00987). The test can be described thus: MDM2–p53 ELISA protein–protein binding assay. As to conditions: for fold loss of potency against MDM2–p53: N-alkyl malonamides compared with 10c.
MDM2–p53, sequence (Q00987 whole entry): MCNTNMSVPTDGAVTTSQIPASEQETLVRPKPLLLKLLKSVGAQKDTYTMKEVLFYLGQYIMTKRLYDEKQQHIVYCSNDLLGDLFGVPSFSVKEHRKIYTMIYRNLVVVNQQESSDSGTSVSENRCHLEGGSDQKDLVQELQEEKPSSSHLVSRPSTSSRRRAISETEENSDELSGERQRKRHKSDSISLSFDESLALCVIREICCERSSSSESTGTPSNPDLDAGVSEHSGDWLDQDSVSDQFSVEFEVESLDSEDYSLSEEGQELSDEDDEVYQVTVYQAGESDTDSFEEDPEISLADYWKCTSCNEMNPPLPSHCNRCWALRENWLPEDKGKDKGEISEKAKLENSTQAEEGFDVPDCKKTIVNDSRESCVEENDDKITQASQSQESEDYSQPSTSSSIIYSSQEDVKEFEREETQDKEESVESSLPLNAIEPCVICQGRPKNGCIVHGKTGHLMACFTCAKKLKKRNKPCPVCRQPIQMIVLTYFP
A further test concerns SJSA-1. The test can be described thus: Growth inhibitory activity, SJSA-1. The note with it: Homo sapiens, SJSA-1, read-out: GI50 SJSA-1.
In a further test the test system is HCT116 p53(-/-). Nature of the test: Growth inhibitory activity, HCT116 p53(-/-) (Table S3). The test is classed as cell-based. The note with it: Homo sapiens, HCT-116, read-out: GI50 HCT116 p53(-/-).
Text: as §1

The target in a further test is T1, MDMX–p53 (Homo sapiens, UniProt O15151).
T1 construct: host or cells: in vitro coupled T7 transcription and rabbit reticulocyte lysate translation
T1 sequence (O15151 1-490): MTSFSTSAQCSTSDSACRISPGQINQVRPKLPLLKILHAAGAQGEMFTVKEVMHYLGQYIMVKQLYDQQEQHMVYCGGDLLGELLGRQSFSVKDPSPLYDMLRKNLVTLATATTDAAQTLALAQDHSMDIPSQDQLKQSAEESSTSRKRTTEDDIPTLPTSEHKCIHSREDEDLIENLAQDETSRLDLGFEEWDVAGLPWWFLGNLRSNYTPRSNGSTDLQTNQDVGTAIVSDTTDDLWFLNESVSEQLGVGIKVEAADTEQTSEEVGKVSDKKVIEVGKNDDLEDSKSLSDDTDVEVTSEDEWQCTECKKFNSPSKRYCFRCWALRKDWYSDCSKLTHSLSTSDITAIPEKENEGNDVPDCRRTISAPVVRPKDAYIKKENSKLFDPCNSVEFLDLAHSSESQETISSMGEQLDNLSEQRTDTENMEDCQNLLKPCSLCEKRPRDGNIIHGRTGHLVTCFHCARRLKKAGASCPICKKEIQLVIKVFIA
Nature of the test: MDMX–p53 ELISA binding assay.

Setting [2] is: Table 3, n = 3 (b n = 5), read-out: MDM2 IC50.
Setting [3] is: Table 3, n = 3 (c n = 1), read-out: MDMX IC50.

Like-named read-outs stand apart in the source and are kept apart here.

Experimental for SJSA-1: Growth inhibitory activity was determined for selected pyrroles in a panel of cell lines with defined MDM2, MDMX and p53 status (Table 5).

For `Cc1cc(C=C2C(=O)NC(=S)NC2=O)c(C)n1-c1ccc(Cl)cc1` [Compound 4a], the GI50 in the test with A2780-CP70 turned out to be 4.4 ± 0.2 µM; in test [1] it was 3.4 ± 0.2 µM; in the test on HCT116, 8.4 ± 0.5 µM; with SJSA-1, 3.3 ± 0.1 µM; in the test with HCT116 p53(-/-) it was 8.3 ± 0.4 µM. Further, the IC50 at MDM2–p53 (read-out: MDM2 IC50) was 0.72 ± 0.1 µM.

As to `Cc1cc(/C=C2\C(=O)NC(=S)N(c3ccccc3)C2=O)c(C)n1-c1ccc(Cl)cc1` [Compound 4b], the GI50 in the test on A2780-CP70 worked out at 9.5 ± 0.1 µM; in test [1] it was 8.4 ± 0.2 µM; in the test with HCT116 it was 9.5 ± 0.3 µM; with SJSA-1 it was 7.6 ± 0.1 µM; in the test with HCT116 p53(-/-) it was 9.9 ± 0.1 µM. Also, the concentration for half-maximal inhibition (IC50) at MDM2–p53 (read-out: MDM2 IC50) amounted to 3.3 ± 0.7 µM.

For the compound `O=C1NC(=S)N(c2cccc(Cl)c2)C(=O)/C1=C/c1cc(-c2ccccc2)n(-c2ccc(Cl)cc2)c1-c1ccccc1` [Compound 4e], at MDM2–p53 (read-out: MDM2 IC50), the IC50 amounted to 0.163 ± 0.017 µM.

Take `Cc1ccc(N2C(=O)/C(=C\c3cc(-c4ccccc4)n(-c4ccc(Cl)cc4)c3-c3ccccc3)C(=O)N(c3ccccc3)C2=S)cc1C` [Compound 4f]: the IC50 at MDM2–p53 (read-out: MDM2-p53 IC50) came out at 0.26 ± 0.04 µM; at MDM2–p53 (read-out: MDM2 IC50) it was 0.256 ± 0.039 µM.

`CN1C(=O)C(=Cc2cc(-c3ccccc3)n(-c3ccc(Cl)cc3)c2-c2ccccc2)C(=O)N(C)C1=S` [Compound 4g]: on MDM2–p53, the “MDM2-p53 IC50” value is recorded as “Insol” and the “MDM2 IC50” value is on record as “Insol”.

Consider `Cc1cc(C=C2C(=O)N(c3ccccc3)C(=S)N(c3ccccc3)C2=O)c(C)n1-c1ccc(Br)cc1` [Compound 4h], for which the IC50 at MDM2–p53 (read-out: MDM2 IC50) was determined as 0.199 ± 0.016 µM.

As for `Cc1ccc(-n2c(C)cc(C=C3C(=O)NC(=S)NC3=O)c2C)cc1` [Compound 4j], the IC50 at MDM2–p53 (read-out: MDM2 IC50) amounted to 4.7 ± 0.2 µM.

For the compound `CCOC(=O)c1ccc(-n2c(-c3ccccc3)cc(C=C3C(=O)NC(=S)NC3=O)c2-c2ccccc2)cc1` [Compound 4k], the IC50 at MDM2–p53 (read-out: MDM2 IC50) was 0.7 ± 0.02 µM.

On to `O=C1NC(=O)C(=Cc2cc(-c3ccccc3)n(-c3ccc(Cl)cc3)c2-c2ccccc2)C(=O)N1` [Compound 4m], for which the IC50 on MDM2–p53 (read-out: MDM2 IC50) is 0.3 ± 0.03 µM.

As for `O=C1NC(=O)C(=Cc2cc(-c3ccccc3)n(-c3ccc(Br)cc3)c2-c2ccccc2)C(=O)N1` [Compound 4n], the 50% inhibitory concentration (IC50) at MDM2–p53 (read-out: MDM2 IC50) was determined as 0.18 ± 0.07 µM.

As for `COc1ccc(-n2c(-c3ccccc3)cc(C=C3C(=O)NC(=O)NC3=O)c2-c2ccccc2)cc1` [Compound 4o], the half-inhibitory concentration (IC50) on MDMX–p53 (read-out: MDMX IC50) worked out at 13 ± 7 µM; on MDM2–p53 (read-out: MDM2 IC50), 1.9 ± 0.3 µM.

Turning to `CC(C)(C)c1ccc(-n2c(-c3ccccc3)cc(C=C3C(=O)NC(=O)NC3=O)c2-c2ccccc2)cc1` [Compound 4p], at MDM2–p53 (read-out: MDM2 IC50), the half-maximal inhibitory concentration (IC50) amounted to 1.9 ± 0.3 µM.

On to `N#Cc1ccc(-n2c(-c3ccccc3)cc(C=C3C(=O)NC(=O)NC3=O)c2-c2ccccc2)cc1` [Compound 4q], for which the IC50 at MDMX–p53 (read-out: MDMX IC50) was determined as 7 ± 3 µM; at MDM2–p53 (read-out: MDM2 IC50) it was 4.7 ± 1.9 µM.

Turning to `O=C1NC(=O)C(=Cc2cc(-c3ccccc3)n(-c3ccc([N+](=O)[O-])cc3)c2-c2ccccc2)C(=O)N1` [Compound 4s, 5-((1-(4-nitrophenyl)-2,5-diphenyl-1H-pyrrol-3-yl)methylene)pyrimidine-2,4,6(1H,3H,5H)-trione], the IC50 on MDMX–p53 (read-out: MDMX IC50) amounted to 0.68 ± 0.18 µM; at MDM2–p53 (read-out: MDM2 IC50), 0.15 ± 0.06 µM.

As to `CCN1C(=O)C(=Cc2cc(-c3ccccc3)n(-c3ccc(Cl)cc3)c2-c2ccccc2)C(=O)N(CC)C1=S` [Compound 4u], the “fold less potent against MDM2 compared with unsubstituted analogues” value on MDM2–p53 was 3–4 fold. Besides, on MDM2–p53 (read-out: MDM2 IC50), the IC50 was 0.3 ± 0.12 µM.

With `CCN1C(=O)C(=Cc2cc(-c3ccccc3)n(-c3ccc(Br)cc3)c2-c2ccccc2)C(=O)N(CC)C1=O` [Compound 4v], the inhibition at 50 µM at MDMX–p53 (read-out: MDMX % inhibition at 50 μM) is 74%. In addition, at MDM2–p53, the “fold less potent against MDM2 compared with unsubstituted analogues” value is recorded as 3–4 fold. For the same compound, at MDM2–p53 (read-out: MDM2 IC50), the IC50 is 0.89 ± 0.04 µM.

Regarding `CCN1C(=O)C(=Cc2cc(-c3ccccc3)n(-c3ccc(Br)cc3)c2-c2ccccc2)C(=O)N(CC)C1=S` [Compound 4w], the IC50 at MDM2–p53 (read-out: MDM2 IC50) is 0.26 ± 0.05 µM.

For `CN1C(=O)NC(=O)C(=Cc2cc(-c3ccccc3)n(-c3ccc(Br)cc3)c2-c2ccccc2)C1=O` [Compound 4y], the IC50 on MDMX–p53 turned out to be 35 ± 20 µM; at MDM2–p53, 0.34 ± 0.08 µM.

In turn, `CN1C(=O)C(=Cc2cc(-c3ccccc3)n(-c3ccc(Br)cc3)c2-c2ccccc2)C(=O)NC1=S` [Compound 4z] displayed an IC50 at MDM2–p53 of 0.073 ± 0.002 µM.

Regarding `CC1(C)OC(=O)C(=Cc2cc(-c3ccccc3)n(-c3ccc(Br)cc3)c2-c2ccccc2)C(=O)O1` [Compound 7], the “fold less potent than 8c against MDM2–p53” value at MDM2–p53 was over 100 fold. The IC50 at MDM2–p53 (setting [2]) came to 17 ± 4 µM.

On to `CC1(C)OC(=O)C(Cc2cc(-c3ccccc3)n(-c3ccc(Br)cc3)c2-c2ccccc2)C(=O)O1` [Compound 9], for which the “fold less potent than 8c against MDM2–p53” value on MDM2–p53 worked out at 20 fold. Moreover, the IC50 on MDM2–p53 (setting [2]) was determined as 2.9 ± 0.7 µM.

Turning to `COC(=O)C(=Cc1cc(-c2ccccc2)n(-c2ccc(Cl)cc2)c1-c1ccccc1)C(=O)OC` [Compound 10a], the IC50 on MDMX–p53 (setting [3]) and at MDM2–p53 (setting [2]) was over 50 µM each time. Moreover, the “activity against MDM2–p53 in words” value on MDM2–p53 was “essentially inactive”.

Regarding `O=C(O)C(=Cc1cc(-c2ccccc2)n(-c2ccc(Cl)cc2)c1-c1ccccc1)C(=O)O` [Compound 10b], the IC50 was over 50 µM on MDMX–p53 (setting [3]) and 2.9 ± 0.2 µM on MDM2–p53 (setting [2]). Further, at MDM2–p53, the “activity against MDM2–p53 in words” value is recorded as “modest activity”.

For the compound `NC(=O)C(=Cc1cc(-c2ccccc2)n(-c2ccc(Cl)cc2)c1-c1ccccc1)C(N)=O` [Compound 10c], the figures for the IC50 at MDMX–p53 (setting [3]) and at MDM2–p53 (setting [2]) were 30 µM and 2.5 ± 0.2 µM, respectively.

Take `CNC(=O)C(=Cc1cc(-c2ccccc2)n(-c2ccc(Cl)cc2)c1-c1ccccc1)C(=O)NC` [Compound 10d]: the figures for the half-inhibitory concentration (IC50) on MDMX–p53 (setting [3]) and at MDM2–p53 (setting [2]) were 30 µM and 7.6 ± 0.4 µM, respectively. The “fold loss of potency against MDM2–p53” value at MDM2–p53 came to 3 fold.

Consider `O=C(NCCO)C(=Cc1cc(-c2ccccc2)n(-c2ccc(Cl)cc2)c1-c1ccccc1)C(=O)NCCO` [Compound 10e], for which the IC50 was found to be 42 µM at MDMX–p53 (setting [3]) and 15 ± 3 µM at MDM2–p53 (setting [2]). Also, at MDM2–p53, the “fold loss of potency against MDM2–p53” value came out at 6 fold.

For `O=C(O)/C=C/c1cc(-c2ccccc2)n(-c2ccc(Cl)cc2)c1-c1ccccc1` [Compound 10f], on MDMX–p53, the “activity against MDMX–p53 in words” value was “inactive”. Moreover, the IC50 on MDMX–p53 (setting [3]) is over 50 µM; at MDM2–p53 (setting [2]), 17 ± 3 µM. For the same compound, on MDM2–p53, the “activity against MDM2–p53 in words” value is recorded as “only weakly active”.

As to `CC(C)(C)c1cc(C=C2C(=O)NC(=S)NC2=O)c(-c2ccccc2)n1-c1ccc(Br)cc1` [Compound 11b], the “fold loss of potency for MDMX” value on MDMX–p53 was over 200 fold. Besides, the IC50 is 963 µM at MDMX–p53 (read-out: MDMX IC50) and 0.76 ± 0.27 µM on MDM2–p53 (read-out: MDM2 IC50).

In the case of `CC(C)(C)c1cc(C=C2C(=O)NC(=S)NC2=O)c(-c2ccccc2)n1-c1ccc(Cl)cc1` [Compound 11c], at MDMX–p53, the “fold loss of potency for MDMX” value is given as over 200 fold. The IC50 on MDMX–p53 (read-out: MDMX IC50) was 1680 µM; at MDM2–p53 (read-out: MDM2 IC50), 1.1 ± 0.7 µM.

As to `O=C1NC(=S)NC(=O)C1=Cc1cc(-c2ccccc2)n(-c2ccc(Cl)cc2)c1C1CC1` [Compound 11d], the values for the IC50 on MDMX–p53 (read-out: MDMX IC50) and on MDM2–p53 (read-out: MDM2 IC50) were 3490 µM and 1.6 ± 1.7 µM, respectively.

Regarding `O=C1NC(=S)NC(=O)C1=Cc1cc(-c2ccccc2)n(-c2ccc(Br)cc2)c1C1CC1` [Compound 11e], the IC50 was found to be 3430 µM at MDMX–p53 (read-out: MDMX IC50) and 1.6 ± 1.6 µM on MDM2–p53 (read-out: MDM2 IC50).

Regarding `O=C1NC(=S)NC(=O)C1=Cc1cc(C2CC2)n(-c2ccc(Cl)cc2)c1-c1ccccc1` [Compound 11f], the results for the IC50 on MDMX–p53 (read-out: MDMX IC50) and at MDM2–p53 (read-out: MDM2 IC50) were 4920 µM and 2.1 ± 2.7 µM, respectively.

Turning to `O=C1NC(=S)NC(=O)C1=Cc1cc(C2CC2)n(-c2ccc(Br)cc2)c1-c1ccccc1` [Compound 11g], the values for the IC50 on MDMX–p53 (read-out: MDMX IC50) and at MDM2–p53 (read-out: MDM2 IC50) were 5320 µM and 2.2 ± 2.7 µM, respectively.
